What is called inhibition is the drop in the measured response relative to a control, in per cent.

The values that follow come from publication PMC4184701 (Pharmacology Research & Perspectives, 2014).

Data set [1] relates to hAChE-induced amyloid aggregation. Also noted: method as in Piazzi et al. [2003], [2007]. As to conditions: at 100 μmol/L concentration; ref Piazzi et al. [2003], [2007]; cited from earlier work.
The target of a further data set is T1, Aβ1-42 (Homo sapiens, UniProt P05067).
T1 construct: 1,1,1,3,3,3-hexafluoro-2-propanol pretreated Aβ1-42 samples (Bachem AG, Switzerland); purchased Bachem AG, Switzerland
The data set is described as follows: biochemical. As to conditions: ± SEM; 50 μmol/L Aβ, 30°C, 24 h, ThT; highest tested concentration 50 μmol/L; read-out: IC50 Aβ1-42 self-aggregation.

Data set [2] has as its target T2, BACE1 (Homo sapiens, UniProt P56817). The data set can be described thus: Inhibition of BACE1 (FRET assay). As to conditions: ± SEM, Panvera peptide substrate, pH 4.5. It counts as biochemical.
The test system of data set [3] is SH-SY5Y cells. The data set is described as follows: Aβ1-42 oligomer-induced cytotoxicity, MTT assay, SH-SY5Y cells. It counts as cell-based. To be noted: Homo sapiens; for IC50: 3 h, read-out: IC50 Aβ1-42 oligomer toxicity SH-SY5Y cells; for inhibition at 30 µM: read-out: toxicity inhibition. Background: Tetrazolium assays rely on reduction of a dye to a coloured formazan, in cell work by metabolically active cells.

The test system of data set [4] is THP-1 cells. The data set is described as follows: Aβ1-42 oligomer binding to the cell surface (Congo red assay), THP-1 cells. It counts as cell-based, human. To be noted: compound 30 μmol/L, Aβ1-42 oligomers 5 μmol/L, 30 min cotreatment. The method, then: (§1) SH-SY5Y and THP-1 cells were seeded in 96-well plates at 5 × 10^3 cells/well and 5 × 10^4 cells/well, respectively, for 24 h. At the end of incubation, the medium was changed with a fresh one with Aβ1-42 oligomer (5 μmol/L) and various compounds at 30 μmol/L for 30 min and then washed twice with PBS. The residual Aβ1-42 oligomer cell complex was stained with 1 μmol/L of Congo red (CR) in PBS for 20 min and measured with a spectrophotometer (TECAN®, GENios) at 540 nm (bound CR). CR values are reported as percent increases in treated cells versus untreated cells.

For data set [5], the target named is T3, BuChE derived from human serum (Homo sapiens, UniProt P06276).
T3 construct: BuChE derived from human serum (Sigma Chemical, Milan, Italy); purchased Sigma Chemical, Milan, Italy; host or cells: human serum
The data set is described as follows: biochemical. It counts as biochemical. As to conditions: ± SEM; 20 min preincubation at 37°C, pH 8.0; read-out: IC50 hBuChE.

Data set [6] relates to THP-1 cells. The data set can be described thus: Aβ1-42 oligomer-induced cytotoxicity, MTT assay, THP-1 cells. It counts as cell-based. To be noted: Homo sapiens, read-out: IC50 Aβ1-42 oligomer toxicity THP-1 cells.
Data set [7] relates to SH-SY5Y cells. The data set is described as follows: Aβ1-42 oligomer binding to the cell surface (Congo red assay), SH-SY5Y cells. It counts as cell-based, human. To be noted: compound 30 μmol/L, Aβ1-42 oligomers 5 μmol/L, 30 min cotreatment. The method, then: as §1
In data set [8] the test system is SH-SY5Y cells. The data set can be described thus: Aβ25-35 peptide-induced cytotoxicity, MTT assay, SH-SY5Y cells. As to conditions: 1–30 μmol/L, Aβ25-35 5 μmol/L, 3 h.
Data set [9] relates to THP-1 cells. The data set is described as follows: Aβ-induced toxicity (Aβ1-42 oligomers, Aβ25-35), MTT assay, THP-1 cells. It counts as cell-based, human. As to conditions: 1–30 μmol/L, Aβ 5 μmol/L, 3 h.
In another data set the target is human recombinant AChE (Homo sapiens, UniProt P22303). The data set is described as follows: biochemical. To be noted: ± SEM; 20 min preincubation at 37°C, pH 8.0; read-out: IC50 hAChE.
Data set [10] has as its system SH-SY5Y cells. The data set can be described thus: Total antioxidant activity in membrane and cytosolic fractions (ABTS decolorization). To be noted: SH-SY5Y treated 2 h, vs untreated cells. It counts as cell-based, human.
For data set [11], the system named is SH-SY5Y cells. The data set can be described thus: t-BuOOH-induced intracellular ROS formation (DCFH-DA, DHE). It counts as cell-based, human. As to conditions: 3–30 μmol/L, 3 h pretreatment, t-BuOOH 50 μmol/L. How it is done:
As above, the intracellular hydrogen peroxide and superoxide anion formation induced by tert-butyl hydroperoxide (t-BuOOH) at SH-SY5Y cell level was determined using, respectively, the probes DCFH-DA and DHE. Briefly, SH-SY5Y cells were cultured in 96-well microtiter plates at 3 × 10^4 cells/well for 24 h. The medium was then removed and the cells were treated for 3 h with various concentrations of compounds (3–30 μmol/L) at 37°C. After treatment, the cells were washed with PBS and then incubated with DCFH-DA (5 μmol/L) or DHE (10 μmol/L) in PBS at 37°C in 5% CO2 for 30 min. After removal of the probes and further washing, the cells were incubated with t-BuOOH (50 μmol/L) in PBS for 30 min. At the end of incubation, the green or red fluorescence of the cells from each well was measured with a spectrofluorometer (TECAN®, GENios). The results are expressed as fold increases in intracellular ROS evoked by exposure to t-BuOOH.

Data set [12] deals with THP-1 cells. The data set can be described thus: Aβ1-42 oligomer-induced NO and TNFα release. It counts as cell-based, human. As to conditions: 30 μmol/L. The method, then:
THP-1 cells were seeded in 96-well plates at 5 × 10^4 cells/well for 24 h. At the end of incubation, the medium was changed with a fresh one with AP2469 30 μmol/L for 3 h. The cells were then washed with PBS and incubated for a further 12 h with Aβ1-42 oligomer (5 μmol/L). The content of each well was then removed and centrifuged at 2500g for 10 min, and the supernatant was frozen at −20°C for the subsequent analysis of released NO and tumor necrosis factor alpha (TNFα). To determine the NO levels, 100 μL of supernatant was incubated with 100 μL of Griess reagent (Sigma Aldrich) in the dark at room temperature for 15 min. The intensity of the color that developed was then measured at 540 nm using a spectrophotometer (TECAN®, GENios). Values are reported as percent increases in treated cells versus untreated cells. The TNFα levels in 100 μL of supernatant were determined by Ray Bio® ELISA kit according to the manufacturer's instructions (Ray Biotech, Inc., GA). The concentration of TNFα levels was calculated from a TNFα standard curve standard of 25–6000 pg/mL and the values are reported as percent increases in treated cells versus untreated cells.

In data set [13] the test system is SH-SY5Y cells. The data set is described as follows: Aβ1-42 oligomer-induced intracellular ROS formation (DCFH-DA, DHE). It counts as cell-based, human. As to conditions: 3–30 μmol/L, 3 h pretreatment, Aβ1-42 oligomers 5 μmol/L. The method, then: The intracellular hydrogen peroxide and superoxide anion formation induced by Aβ1-42 oligomer at SH-SY5Y cell level was determined using, respectively, the probe 2′,7′-dichlorodihydrofluorescein diacetate (DCFH-DA, λexc = 485 nm, λem = 535 nm), and dihydroethidium (DHE, λexc = 380 nm, λem = 445 nm). SH-SY5Y cells were cultured in BD Falcon™ 8-well Culture slides (surface area 0.7 cm^2/well) at 1 × 10^4 cells/well for 24 h. The cells were then treated for 3 h with various concentrations of compounds (3–30 μmol/L) at 37°C prior to the treatment of 3 h with Aβ1-42 oligomer (5 μmol/L). At the end of treatment, the cells were washed and incubated with DCFH-DA (5 μmol/L) or DHE (10 μmol/L) for 30 min in the dark. After removal of the probes, cells were washed with PBS and incubated with DMEM serum free for 1 h at 37°C. Intracellular ROS formation was measured under a fluorescence microscope (Zeiss Axio Imager M1). Fluorescence images were captured with an AxioVision image recording system computer. Four randomly selected areas with 50–100 cells in each were analyzed and the values obtained are expressed as fold increases in hydrogen peroxide and superoxide anion versus untreated cells.

Data set [14] has as its target T2, BACE1. As to conditions: cited from earlier work.
Where [15] appears, read: SH-SY5Y, ± SEM, 5 μmol/L Aβ1-42 oligomers, MTT, highest tested concentration 30 μmol/L.
Setting [16] is: THP-1, ± SEM, 5 μmol/L Aβ1-42 oligomers, 3 h, MTT, highest tested concentration 30 μmol/L.

Structures are written as SMILES. “And” between values parts separate entries of the source, which are not always exact repeats. Identical values can stand only once. Like-named read-outs stand apart in the source and are kept apart here. Where only a bound is given, the exact number is not on record here.

T2 sequence (P56817 46-501): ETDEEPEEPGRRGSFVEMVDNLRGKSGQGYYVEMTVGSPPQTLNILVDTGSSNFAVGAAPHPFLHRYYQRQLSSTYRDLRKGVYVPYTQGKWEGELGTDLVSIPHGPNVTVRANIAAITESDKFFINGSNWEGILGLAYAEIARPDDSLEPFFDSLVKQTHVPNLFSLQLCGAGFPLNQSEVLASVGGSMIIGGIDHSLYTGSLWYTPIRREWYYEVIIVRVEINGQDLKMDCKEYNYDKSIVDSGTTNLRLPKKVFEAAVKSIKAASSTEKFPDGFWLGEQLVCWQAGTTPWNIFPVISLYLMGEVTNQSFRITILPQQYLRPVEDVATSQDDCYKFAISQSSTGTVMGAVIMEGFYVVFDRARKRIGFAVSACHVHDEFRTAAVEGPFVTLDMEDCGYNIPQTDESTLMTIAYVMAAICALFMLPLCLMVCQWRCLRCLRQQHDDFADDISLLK
T1 sequence (P05067 672-713 limits assumed): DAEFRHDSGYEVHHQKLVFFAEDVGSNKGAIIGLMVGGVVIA
T3 sequence (P06276 29-602): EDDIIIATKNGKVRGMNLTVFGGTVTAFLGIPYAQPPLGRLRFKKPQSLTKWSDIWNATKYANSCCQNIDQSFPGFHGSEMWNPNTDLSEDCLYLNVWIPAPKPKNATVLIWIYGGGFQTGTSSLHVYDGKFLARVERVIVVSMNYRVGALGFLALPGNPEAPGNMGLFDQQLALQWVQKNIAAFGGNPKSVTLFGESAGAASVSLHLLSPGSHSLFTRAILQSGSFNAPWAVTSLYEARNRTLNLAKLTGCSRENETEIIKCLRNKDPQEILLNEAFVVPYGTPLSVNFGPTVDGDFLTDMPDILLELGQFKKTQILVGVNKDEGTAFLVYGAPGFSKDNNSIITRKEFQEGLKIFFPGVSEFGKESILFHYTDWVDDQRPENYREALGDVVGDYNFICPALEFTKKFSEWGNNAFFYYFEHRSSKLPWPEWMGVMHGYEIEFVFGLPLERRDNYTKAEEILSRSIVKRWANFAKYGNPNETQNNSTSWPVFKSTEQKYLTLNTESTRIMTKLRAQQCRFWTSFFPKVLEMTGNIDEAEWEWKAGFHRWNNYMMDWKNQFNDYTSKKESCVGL
Sequence of human recombinant AChE (P22303 32-614): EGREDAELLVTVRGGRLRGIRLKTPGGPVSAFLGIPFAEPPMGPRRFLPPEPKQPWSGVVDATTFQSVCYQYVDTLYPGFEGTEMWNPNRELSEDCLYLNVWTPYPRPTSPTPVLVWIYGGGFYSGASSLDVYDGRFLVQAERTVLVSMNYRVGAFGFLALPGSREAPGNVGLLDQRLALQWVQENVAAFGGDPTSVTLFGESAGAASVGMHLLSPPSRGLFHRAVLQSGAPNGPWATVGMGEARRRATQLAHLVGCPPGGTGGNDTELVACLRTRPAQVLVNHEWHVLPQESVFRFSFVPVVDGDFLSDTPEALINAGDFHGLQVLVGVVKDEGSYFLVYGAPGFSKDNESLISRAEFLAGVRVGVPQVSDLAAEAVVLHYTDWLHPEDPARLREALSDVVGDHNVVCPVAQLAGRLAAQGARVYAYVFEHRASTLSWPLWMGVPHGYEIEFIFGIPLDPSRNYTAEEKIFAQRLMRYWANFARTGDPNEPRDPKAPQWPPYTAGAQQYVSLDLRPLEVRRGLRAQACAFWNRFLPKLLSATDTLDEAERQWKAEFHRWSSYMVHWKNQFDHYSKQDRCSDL

With `COc1cc2cc(-c3ccc(CN(C)Cc4ccccc4)cc3)c(=O)oc2cc1OC` [AP2238, 3-(4-{[Benzyl(methyl)amino]methyl}-phenyl)-6,7-dimethoxy-2H-2-chromenone], the “inhibition of hAChE-induced amyloid aggregation” value in [1] is reported as 35%. Also, at Aβ1-42, the IC50 was greater than 50 µM.

With `CCN(Cc1ccccc1)Cc1ccc(-c2cc3cc(OC)c(OC)cc3oc2=O)cc1` [AP2243], the IC50 against BACE1 [2] was 0.24 ± 0.03 µM; in the data set with SH-SY5Y cells [3] (setting [15]), greater than 30 µM; in data set [5], 118 ± 16 µM; in the data set with THP-1 cells [6] (setting [16]) it was greater than 30 µM; on Aβ1-42, greater than 50 µM. Also, in the data set on THP-1 cells [4], the “binding of Aβ1-42 oligomers with THP-1 cells (CR assay)” value was “did not modify”. The “inhibition of hAChE-induced amyloid aggregation” value in data set [1] was 38%. For the same molecule, the “binding of Aβ1-42 oligomers with SH-SY5Y cells (CR assay)” value with SH-SY5Y cells [7] is recorded as “did not modify”.

Consider `CCN(Cc1ccccc1)Cc1ccc(-c2cc3cc(O)c(O)cc3oc2=O)cc1` [AP2469, 3-{4-[(Benzylethylamino)-methyl]phenyl}-6,7-dihydroxychromen-2-one], for which the IC50 at BACE1 [2] was 6.5 µM and 6.49 µM; in the data set on SH-SY5Y cells [3] (setting [15]), 7.5 ± 0.72 µM; at human recombinant AChE, 8.6 ± 0.21 µM; in [5], 124 ± 13 µM; in the data set with THP-1 cells [6] (setting [16]) it was 8.18 ± 0.51 µM; at Aβ1-42, 21.7 ± 3.4 µM. For the same molecule, in the data set with SH-SY5Y cells [8], the “cytotoxicity elicited by Aβ25-35 peptide in SH-SY5Y cells” value was “dose-dependent decrease”. Further, the inhibition at 30 µM with SH-SY5Y cells [3] (at 30 μmol/L, Aβ1-42 oligomers 5 μmol/L, SH-SY5Y cells) was determined as 93%. Also, the “Aβ-induced toxicity in THP-1 cells” value in the data set with THP-1 cells [9] is “significant inhibitor effects”. Besides, the “binding of Aβ1-42 oligomers with THP-1 cells (CR assay)” value with THP-1 cells [4] was “significantly reduced”. Moreover, the “total antioxidant activity (TAA), membrane fraction” value in the data set with SH-SY5Y cells [10] (3–30 μmol/L) was “significant only at the highest tested concentration”. For the same molecule, the “total antioxidant activity (TAA), cytosolic fraction” value in the data set with SH-SY5Y cells [10] (all tested concentrations (3–30 μmol/L)) is on record as “significant TAA increase”. In addition, the “ROS formation induced by t-BuOOH” value with SH-SY5Y cells [11] is given as “significantly reduced”. Moreover, the “Aβ1-42 oligomer-induced TNFα release” value in the data set with THP-1 cells [12] (ELISA) is reported as “inhibited”. In addition, in the data set with THP-1 cells [12] (Griess reagent), the “Aβ1-42 oligomer-induced NO release” value is listed as “reduced”. Also, the “binding of Aβ1-42 oligomers with SH-SY5Y cells (CR assay)” value in the data set on SH-SY5Y cells [7] is recorded as “significantly reduced”. In addition, the “Aβ1-42 oligomer-induced hydrogen peroxide and superoxide anion formation” value with SH-SY5Y cells [13] is “significantly inhibited”.

On to `COc1ccc2c3c1O[C@H]1C[C@@H](O)C=C[C@@]31CCN(C)C2` [Galantamine, reference compound], for which the “cytotoxicity elicited by Aβ25-35 peptide in SH-SY5Y cells” value in the data set with SH-SY5Y cells [8] is on record as “dose-dependent decrease”. Moreover, the IC50 is 7.99 ± 0.91 µM in the data set with SH-SY5Y cells [3] (SH-SY5Y); greater than 5 µM on BACE1 [14] (not active at the highest tested concentration (5 μmol/L), ref Mancini et al. [2007], read-out: IC50 BACE1); greater than 30 µM in the data set with THP-1 cells [6] (THP-1, 3 h); greater than 50 µM at Aβ1-42. For the same molecule, the inhibition at 30 µM in the data set on SH-SY5Y cells [3] (SH-SY5Y) stood at 58%.

As for `c1ccc2c(NCCCCCCCNc3c4c(nc5ccccc35)CCCC4)c3c(nc2c1)CCCC3` [bis(7)-tacrine], the IC50 at BACE1 [14] (noncompetitive BACE1 inhibitor, ref Fu et al. [2008], read-out: BACE1 inhibitory activity) was 7.5 µM.
